Measurements published in patent publication US5464869A, “Use of dimercaptan acids, salts and metabolites thereof as antiretroviral treatments” (Ethicon, Inc., priority 1995, dated 1995).
pIC50: −log10 of the molar value. Several values for one entry are separate records, joined by “and”; a condition that tells them apart may be missing. Identical values can stand only once.

What was measured:
[1] = system: T4 lymphocytes (CEM cell line); assay: Toxicity control: growth inhibition of uninfected T4 lymphocytes (CEM cell line), XTT; conditions: for Uninfected response: uninfected CEM cells, vs uninfected untreated control, 6 days, 8640 min
Experimental: (§1) FIGS. 1-4 are plots of the log10 of the meso-2,3 dimercaptosuccinic acid concentrations (as moles/L or Molar) against the measured test values expressed as a percentage of the uninfected, untreated control values.
(§2) 1. Dimercaptosuccinic acid was dissolved in dimethyl sulfoxide (unless otherwise instructed) then diluted 1:100 in cell culture medium before preparing serial half-log10 dilutions. T4 lymphocytes (CEM cell line) were added and after a brief interval HIV-1 is added, resulting in a 1:200 final dilution of the compound. Uninfected cells with the compound serve as a toxicity control, and infected and uninfected cells without the compound serve as basic controls.
(§3) 2. The cultures were incubated at 37° in a 5% carbon dioxide atmosphere for 6 days.
(§4) 3. The tetrazolium salt, XTT, was added to all wells, and cultures were incubated to allow formazan color development by viable cells.
(§5) 4. Individual wells were analyzed spectrophotometrically to quantitate formazan production, and in addition were viewed microscopically for detection of viable cells and confirmation of protective activity.
(§6) 5. Drug-treated virus-infected cells were compared with drug-treated noninfected cells and with other appropriate controls (untreated infected and untreated noninfected cells, drug-containing wells without cells, etc.) on the same plate.

HIV-1 = assay: microbe, parasite or virus in culture
Excerpt: as §1
The procedure used to test dimercaptosuccinic acid's activity against Human Immunodeficiency Virus (HIV) is the assay developed by Owen S. Weislow et al. described in "Journal of the National Cancer Institute," Vol. 81, No. 8, April 19, 1989 which is hereby incorporated herein by reference. The assay basically involves the killing of T4 lymphocytes by HIV. Small amounts of HIV are added to cells, and a complete cycle of virus reproduction is necessary to obtain the required cell killing. Agents that interact with virions, cells, or virus gene-products to interfere with viral activities will protect cells from cytolysis. All tests are compared with at least one positive (e.g., AZT-treated) control done at the same time under identical conditions.
as §2, §3, §4, §5, §6
6. The data was reviewed in comparison with four other tests done at the same time and a determination about activity was made.

[2] = calcium, magnesium, manganese, iron and zinc; cited from earlier work
[3] = lead, mercury and arsenic; numerous animal studies; cited from earlier work

SMILES: O=C(O)[C@@H](S)[C@@H](S)C(=O)O [dimercaptosuccinic acid, meso-2,3 dimercaptosuccinic acid]
- Uninfected response ([1]; 1.40 × 10^-4 Molar, 140 µM, 140 µM): 80.02% of Control and 81.43% of Control and 107.87% of Control and 105.07% of Control
- Uninfected response ([1]; 1.40 × 10^-5 Molar, 14 µM, 14 µM): 74.62% of Control and 87.58% of Control and 118.28% of Control and 102.83% of Control
- Uninfected response ([1]; 4.30 × 10^-4 Molar, 430 µM, 430 µM): 106.57% of Control and 107.46% of Control and 124.09% of Control and 128.49% of Control
- Uninfected response ([1]; 4.40 × 10^-5 Molar, 44 µM, 44 µM): 84.59% of Control and 85.17% of Control and 125.62% of Control and 102.99% of Control
- pIC50 ([1]; Homo sapiens, CCRF-CEM, 144 h, read-out: 50% inhibitory concentration (IC50)): < 2.85
- Infected response (HIV-1; 1.40 × 10^-4 Molar, HIV-1 infected CEM cells, vs uninfected untreated control, 6 days, 140 µM, 8640 min, 140 µM): 84.32% of Control and 103.60% of Control and 95.01% of Control
- Conclusion (determination of activity) (HIV-1; HIV-1, CEM cells, 6 days, Tables I-IV): CONFIRMED ACTIVE
- viability at 140 µM (HIV-1; Human immunodeficiency virus 1, CCRF-CEM, in Homo sapiens, 144 h, read-out: Infected response, 1.40 × 10^-4 Molar, HIV-1 infected CEM cells, vs uninfected untreated control, 6 days): 94.3%
- Overall conclusion on antiretroviral effectiveness (HIV-1; drawn from data of Tables I-IV): effective as a treatment for retroviruses in warm blooded animals
- Effect on excretion of essential minerals [2]: not to increase the excretion of essential minerals
- Heavy metal chelating effect [3]: effective heavy metal chelating agent for lead, mercury and arsenic
